Data published in the kinase profiling compilation of Christmann-Franck et al. (2016).

What was measured:
Assay in all cases: KINOMEscan competition binding
Settings in all cases: compound 10.0 µM
[1] = target: ACVR2A (human) (UniProt P27037)
[2] = target: ADCK3 (human) (UniProt Q8NI60)
[3] = target: AKT2 (human) (UniProt P31751)
[4] = target: AURKB (human) (UniProt Q96GD4)
[5] = target: CAMK2B (human) (UniProt Q13554)
[6] = target: CDC2L2 (human) (UniProt Q9UQ88)
[7] = target: CDC42BPB (human) (UniProt Q9Y5S2)
[8] = target: CDK3 (human) (UniProt Q00526)
[9] = target: CLK2 (human) (UniProt P49760)
[10] = target: DAPK2 (human) (UniProt Q9UIK4)
[11] = target: DDR2 (human) (UniProt Q16832)
[12] = target: DYRK1B (human) (UniProt Q9Y463)
[13] = target: ERBB2 (human) (UniProt P04626)
[14] = target: ERBB4 (human) (UniProt Q15303)
[15] = target: FGFR3 (human) (UniProt P22607)
[16] = target: FGR (human) (UniProt P09769)
Sequence of FGR (human) (P09769 whole entry, looked up): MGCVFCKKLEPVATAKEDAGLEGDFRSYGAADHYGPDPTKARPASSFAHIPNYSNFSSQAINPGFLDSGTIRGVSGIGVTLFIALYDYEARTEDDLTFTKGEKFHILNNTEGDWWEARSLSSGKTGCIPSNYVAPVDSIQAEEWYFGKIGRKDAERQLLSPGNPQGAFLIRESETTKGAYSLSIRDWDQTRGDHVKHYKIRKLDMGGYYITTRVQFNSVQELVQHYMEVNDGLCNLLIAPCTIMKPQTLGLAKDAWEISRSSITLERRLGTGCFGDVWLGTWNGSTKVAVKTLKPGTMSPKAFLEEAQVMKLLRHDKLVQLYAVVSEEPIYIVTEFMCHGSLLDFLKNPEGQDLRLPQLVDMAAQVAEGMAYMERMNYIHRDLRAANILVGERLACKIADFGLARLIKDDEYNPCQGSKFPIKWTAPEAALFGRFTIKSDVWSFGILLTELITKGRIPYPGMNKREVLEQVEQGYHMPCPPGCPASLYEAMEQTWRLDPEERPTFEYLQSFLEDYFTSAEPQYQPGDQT

[17] = target: FRK (human) (UniProt P42685)
Sequence of FRK (human) (P42685 whole entry, looked up): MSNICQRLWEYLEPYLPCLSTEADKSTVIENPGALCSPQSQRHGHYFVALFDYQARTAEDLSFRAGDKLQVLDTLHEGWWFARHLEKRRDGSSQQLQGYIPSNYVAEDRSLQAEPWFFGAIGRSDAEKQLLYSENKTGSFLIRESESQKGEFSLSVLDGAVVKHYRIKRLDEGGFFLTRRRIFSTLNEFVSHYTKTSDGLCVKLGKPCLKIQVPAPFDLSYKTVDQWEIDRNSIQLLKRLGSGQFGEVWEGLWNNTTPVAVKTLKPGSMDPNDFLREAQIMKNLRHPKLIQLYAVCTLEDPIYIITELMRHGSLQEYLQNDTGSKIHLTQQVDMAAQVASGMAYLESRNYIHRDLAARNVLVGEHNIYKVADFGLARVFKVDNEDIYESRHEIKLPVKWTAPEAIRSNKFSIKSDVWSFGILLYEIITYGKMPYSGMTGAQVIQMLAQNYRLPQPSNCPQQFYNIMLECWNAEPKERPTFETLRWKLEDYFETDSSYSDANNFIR

[18] = target: HIPK1 (human) (UniProt Q86Z02)
Sequence of HIPK1 (human) (Q86Z02 whole entry, looked up): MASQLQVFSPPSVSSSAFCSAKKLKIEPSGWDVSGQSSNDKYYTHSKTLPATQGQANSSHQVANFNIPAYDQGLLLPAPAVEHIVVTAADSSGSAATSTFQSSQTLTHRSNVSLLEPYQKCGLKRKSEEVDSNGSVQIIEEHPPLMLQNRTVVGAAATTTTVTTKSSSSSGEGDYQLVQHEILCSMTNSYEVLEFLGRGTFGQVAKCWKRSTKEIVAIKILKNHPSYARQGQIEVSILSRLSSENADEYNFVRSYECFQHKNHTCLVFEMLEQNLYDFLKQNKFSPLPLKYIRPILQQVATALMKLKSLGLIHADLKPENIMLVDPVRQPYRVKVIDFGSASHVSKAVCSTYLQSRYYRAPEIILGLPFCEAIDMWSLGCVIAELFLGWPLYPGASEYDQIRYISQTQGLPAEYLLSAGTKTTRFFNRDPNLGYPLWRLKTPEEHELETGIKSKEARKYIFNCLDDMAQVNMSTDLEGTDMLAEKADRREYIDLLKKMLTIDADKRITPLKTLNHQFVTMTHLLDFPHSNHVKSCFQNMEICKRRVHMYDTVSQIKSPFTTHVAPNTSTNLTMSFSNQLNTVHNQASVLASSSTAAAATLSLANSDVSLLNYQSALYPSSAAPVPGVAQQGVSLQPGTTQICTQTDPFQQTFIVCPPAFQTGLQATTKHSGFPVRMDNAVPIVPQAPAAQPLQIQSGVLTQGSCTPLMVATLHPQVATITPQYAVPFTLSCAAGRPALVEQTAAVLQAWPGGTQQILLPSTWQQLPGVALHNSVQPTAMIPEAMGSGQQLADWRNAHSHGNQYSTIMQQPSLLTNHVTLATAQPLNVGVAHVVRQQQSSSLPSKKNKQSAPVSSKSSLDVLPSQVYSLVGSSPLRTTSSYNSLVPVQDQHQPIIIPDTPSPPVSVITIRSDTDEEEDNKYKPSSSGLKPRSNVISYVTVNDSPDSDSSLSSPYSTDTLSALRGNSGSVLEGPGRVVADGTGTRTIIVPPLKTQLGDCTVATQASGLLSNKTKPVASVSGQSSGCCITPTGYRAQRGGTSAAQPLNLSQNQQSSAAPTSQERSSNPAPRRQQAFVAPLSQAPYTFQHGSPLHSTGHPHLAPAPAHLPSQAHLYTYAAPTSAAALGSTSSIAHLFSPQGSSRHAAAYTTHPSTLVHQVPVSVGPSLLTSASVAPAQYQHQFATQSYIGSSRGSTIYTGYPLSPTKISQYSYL

[19] = target: LATS1 (human) (UniProt O95835)
Sequence of LATS1 (human) (O95835 whole entry, looked up): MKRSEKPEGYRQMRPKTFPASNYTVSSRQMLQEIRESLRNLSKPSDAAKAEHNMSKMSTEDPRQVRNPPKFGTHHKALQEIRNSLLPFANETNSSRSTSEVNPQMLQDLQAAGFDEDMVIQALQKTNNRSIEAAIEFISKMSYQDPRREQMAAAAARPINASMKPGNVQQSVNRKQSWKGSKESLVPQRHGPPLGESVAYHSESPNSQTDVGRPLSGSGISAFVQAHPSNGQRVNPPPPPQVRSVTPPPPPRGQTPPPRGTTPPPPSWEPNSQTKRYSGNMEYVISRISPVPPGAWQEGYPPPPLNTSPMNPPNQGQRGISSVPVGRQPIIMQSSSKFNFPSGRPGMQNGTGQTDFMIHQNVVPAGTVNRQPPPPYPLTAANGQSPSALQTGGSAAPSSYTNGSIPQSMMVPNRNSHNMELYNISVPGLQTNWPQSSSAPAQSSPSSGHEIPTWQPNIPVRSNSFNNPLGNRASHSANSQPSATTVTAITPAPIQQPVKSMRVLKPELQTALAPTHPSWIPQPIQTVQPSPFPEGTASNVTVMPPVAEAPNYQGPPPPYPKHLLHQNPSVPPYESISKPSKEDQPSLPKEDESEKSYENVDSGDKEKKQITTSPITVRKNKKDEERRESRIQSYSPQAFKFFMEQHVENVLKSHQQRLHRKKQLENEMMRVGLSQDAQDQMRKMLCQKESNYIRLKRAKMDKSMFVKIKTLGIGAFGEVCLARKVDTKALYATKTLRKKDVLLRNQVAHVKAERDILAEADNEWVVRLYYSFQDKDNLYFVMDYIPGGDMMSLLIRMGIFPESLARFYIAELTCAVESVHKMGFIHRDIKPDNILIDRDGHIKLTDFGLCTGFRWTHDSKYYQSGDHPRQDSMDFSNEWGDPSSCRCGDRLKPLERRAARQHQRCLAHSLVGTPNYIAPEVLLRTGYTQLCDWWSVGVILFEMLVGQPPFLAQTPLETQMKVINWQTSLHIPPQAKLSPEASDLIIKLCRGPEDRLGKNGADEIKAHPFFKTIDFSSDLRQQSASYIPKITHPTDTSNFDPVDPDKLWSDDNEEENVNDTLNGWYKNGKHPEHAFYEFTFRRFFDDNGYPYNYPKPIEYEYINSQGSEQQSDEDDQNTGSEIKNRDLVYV

[20] = target: LIMK2 (human) (UniProt P53671)
[21] = target: MAP3K5 (human) (UniProt Q99683)
[22] = target: MAPK1 (human) (UniProt P28482)
[23] = target: MAPK14 (human) (UniProt Q16539)
[24] = target: MAPK15 (human) (UniProt Q8TD08)
[25] = target: MAPKAPK5 (human) (UniProt Q8IW41)
[26] = target: MST4 (human) (UniProt Q9P289)
[27] = target: PHKG1 (human) (UniProt Q16816)
[28] = target: PIK3CD (human) (UniProt O00329)
[29] = target: PKN2 (human) (UniProt Q16513)
[30] = target: PRKD1 (human) (UniProt Q15139)
[31] = target: PRKG1 (human) (UniProt Q13976)
[32] = target: RET (human) (UniProt P07949)
[33] = target: RPS6KA6 KD1 (human) (UniProt Q9UK32)
[34] = target: RPS6KA6 KD2 (human) (UniProt Q9UK32)
[35] = target: SRMS (human) (UniProt Q9H3Y6)
[36] = target: SRPK3 (human) (UniProt Q9UPE1)
[37] = target: TGFBR1 (human) (UniProt P36897)
Sequence of TGFBR1 (human) (P36897 whole entry, looked up): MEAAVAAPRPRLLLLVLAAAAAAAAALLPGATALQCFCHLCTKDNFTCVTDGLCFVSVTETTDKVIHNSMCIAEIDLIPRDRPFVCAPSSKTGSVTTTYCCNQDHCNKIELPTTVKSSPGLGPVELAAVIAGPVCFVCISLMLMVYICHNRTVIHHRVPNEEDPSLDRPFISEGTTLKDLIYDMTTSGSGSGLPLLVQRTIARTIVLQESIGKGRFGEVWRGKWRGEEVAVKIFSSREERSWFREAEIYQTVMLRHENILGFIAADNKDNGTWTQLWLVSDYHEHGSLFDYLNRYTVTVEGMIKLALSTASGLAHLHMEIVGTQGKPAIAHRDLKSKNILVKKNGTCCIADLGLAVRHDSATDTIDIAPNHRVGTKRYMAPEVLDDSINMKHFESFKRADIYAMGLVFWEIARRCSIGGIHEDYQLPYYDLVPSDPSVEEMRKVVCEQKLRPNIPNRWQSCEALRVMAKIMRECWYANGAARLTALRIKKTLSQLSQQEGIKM

[38] = target: TLK2 (human) (UniProt Q86UE8)
[39] = target: ULK2 (human) (UniProt Q8IYT8)
[40] = target: ULK3 (human) (UniProt Q6PHR2)
Sequence of ULK3 (human) (Q6PHR2 whole entry, looked up): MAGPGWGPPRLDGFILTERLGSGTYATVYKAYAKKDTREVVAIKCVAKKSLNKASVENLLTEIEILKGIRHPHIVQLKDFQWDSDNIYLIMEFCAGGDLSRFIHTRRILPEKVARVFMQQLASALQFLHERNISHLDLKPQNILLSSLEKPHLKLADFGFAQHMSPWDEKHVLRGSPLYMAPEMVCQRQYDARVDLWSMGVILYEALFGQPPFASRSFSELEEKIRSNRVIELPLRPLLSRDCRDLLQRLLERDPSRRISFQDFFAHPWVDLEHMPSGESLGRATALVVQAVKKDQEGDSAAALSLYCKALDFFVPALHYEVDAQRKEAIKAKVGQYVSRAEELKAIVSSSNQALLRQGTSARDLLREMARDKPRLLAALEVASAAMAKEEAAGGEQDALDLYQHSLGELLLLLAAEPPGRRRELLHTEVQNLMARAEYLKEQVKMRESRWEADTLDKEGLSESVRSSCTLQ

Sequence of ADCK3 (human) (Q8NI60 whole entry, looked up): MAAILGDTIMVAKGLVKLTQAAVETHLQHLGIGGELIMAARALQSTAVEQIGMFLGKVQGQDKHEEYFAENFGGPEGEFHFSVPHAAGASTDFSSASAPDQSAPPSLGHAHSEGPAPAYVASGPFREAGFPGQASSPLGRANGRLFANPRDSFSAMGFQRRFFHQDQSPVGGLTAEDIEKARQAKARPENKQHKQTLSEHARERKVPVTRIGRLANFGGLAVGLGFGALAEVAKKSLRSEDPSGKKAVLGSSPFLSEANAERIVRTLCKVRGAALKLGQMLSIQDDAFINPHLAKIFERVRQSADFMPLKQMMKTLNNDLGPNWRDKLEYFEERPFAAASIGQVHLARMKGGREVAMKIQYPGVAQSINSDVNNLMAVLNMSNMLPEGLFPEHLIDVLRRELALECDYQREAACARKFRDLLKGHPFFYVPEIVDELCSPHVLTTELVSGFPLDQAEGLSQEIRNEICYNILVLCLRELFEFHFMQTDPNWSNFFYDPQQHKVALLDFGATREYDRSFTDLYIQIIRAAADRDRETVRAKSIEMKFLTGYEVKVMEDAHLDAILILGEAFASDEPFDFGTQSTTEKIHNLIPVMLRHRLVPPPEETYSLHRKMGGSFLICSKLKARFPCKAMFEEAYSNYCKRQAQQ

| Compound | kinase still bound, per cent of control [1] [%] | kinase still bound, per cent of control [2] [%] | kinase still bound, per cent of control [3] [%] | kinase still bound, per cent of control [4] [%] | kinase still bound, per cent of control [5] [%] | kinase still bound, per cent of control [6] [%] | kinase still bound, per cent of control [7] [%] | kinase still bound, per cent of control [8] [%] | kinase still bound, per cent of control [9] [%] | kinase still bound, per cent of control [10] [%] | kinase still bound, per cent of control [11] [%] | kinase still bound, per cent of control [12] [%] | kinase still bound, per cent of control [13] [%] | kinase still bound, per cent of control [14] [%] | kinase still bound, per cent of control [15] [%] | kinase still bound, per cent of control [16] [%] | kinase still bound, per cent of control [17] [%] | kinase still bound, per cent of control [18] [%] | kinase still bound, per cent of control [19] [%] | kinase still bound, per cent of control [20] [%] | other results |
| --- | --- | --- | --- | --- | --- | --- | --- | --- | --- | --- | --- | --- | --- | --- | --- | --- | --- | --- | --- | --- | --- |
| COc1cc(C(=O)NC2CCN(C)CC2)ccc1Nc1ncc2c(n1)N(C1CCCC1)CCC(=O)N2C(C)C | 100 | 100 | 100 | 100 | 100 | 100 | 100 | 100 | 100 | 100 | 100 | 100 | 100 | 100 | 100 | 100 | 100 | 100 | 100 | 100 | kinase still bound, per cent of control [21]: 100%; kinase still bound, per cent of control [22]: 100%; kinase still bound, per cent of control [23]: 100%; kinase still bound, per cent of control [24]: 100%; kinase still bound, per cent of control [25]: 100%; kinase still bound, per cent of control [26]: 100%; kinase still bound, per cent of control [27]: 100%; kinase still bound, per cent of control [28]: 100%; kinase still bound, per cent of control [29]: 100%; kinase still bound, per cent of control [30]: 100%; kinase still bound, per cent of control [31]: 100%; kinase still bound, per cent of control [32]: 100%; kinase still bound, per cent of control [33]: 100%; kinase still bound, per cent of control [34]: 100%; kinase still bound, per cent of control [35]: 100%; kinase still bound, per cent of control [36]: 100%; kinase still bound, per cent of control [37]: 100%; kinase still bound, per cent of control [38]: 100%; kinase still bound, per cent of control [39]: 100%; kinase still bound, per cent of control [40]: 100% |
| Cc1ccc2nc(NCCN)c3ncc(C)n3c2c1 | 92 | 61 | 100 | 67 | 73 | 1 | 100 | 100 | 54 | 65 | 100 | 85 | 100 | 100 | 99 | 100 | 100 | 21 | 100 | 100 | kinase still bound, per cent of control [21]: 80%; kinase still bound, per cent of control [22]: 97%; kinase still bound, per cent of control [23]: 98%; kinase still bound, per cent of control [24]: 19%; kinase still bound, per cent of control [25]: 100%; kinase still bound, per cent of control [26]: 95%; kinase still bound, per cent of control [27]: 95%; kinase still bound, per cent of control [28]: 99%; kinase still bound, per cent of control [29]: 71%; kinase still bound, per cent of control [30]: 47%; kinase still bound, per cent of control [31]: 100%; kinase still bound, per cent of control [32]: 100%; kinase still bound, per cent of control [33]: 88%; kinase still bound, per cent of control [34]: 40%; kinase still bound, per cent of control [35]: 90%; kinase still bound, per cent of control [36]: 100%; kinase still bound, per cent of control [37]: 100%; kinase still bound, per cent of control [38]: 88%; kinase still bound, per cent of control [39]: 100%; kinase still bound, per cent of control [40]: 76% |
